# What was measured:
# [1] = Concentrations of 24 analytes in QSG treated plasma (Table S5); details: for Concentration: QSG treated plasma, n = 5
# [2] = tested on: H9c2 cells; assay: Cytotoxicity on H9c2 cells (CCK-8); format: cell-based, rat
# Description: (§1) Rat myocardial H9c2 cells (purchased from China Infrastructure of Cell Line Resources, Institute of Basic Medical Sciences, Chinese Academy of Medical Sciences) were cultured in DMEM supplemented with 10% fetal bovine serum (FBS), Penicillin (100 U/mL), and Streptomycin (100 μg/mL) at 37 °C under a humidified atmosphere of 5% CO2 and 95% air. For OGD/R treatment, H9c2 cells were cultured in glucose-free DMEM under hypoxic conditions (95%N2 + 5%CO2) for 4 h at 37 °C followed by complete medium under normal conditions with air (95%) and CO2 (5%) for 2 h. A control group was maintained under normal culture conditions (with glucose-containing DMEM and 5% CO2) without undergoing OGD/R treatment. CCK8 was used to assess cell viability. After treatment, H9c2 cells were seeded in 96-well plates, with each well supplemented with 10 μL of CCK-8 solution and then incubated for 1 h. Finally, the absorbance at 450 nm was detected by a microplate reader (Model […] 200 PRO, TECAN, Grodig, Austria).
# When evaluating the cytotoxicities of the absorbed compounds, the H9c2 cells were seeded in 96-well plates at a density of 1 × 10^4 cells/well; when cells reached 80% confluence, […] Afterward, the protective effects were verified by assessing the cell viability when treating with different concentrations (1, 10, 25, 50, and 100 μM) of the analytes prior to OGD/R treatment.
# [3] = tested on: OGD/R-induced H9c2 cells; assay: Protective effect on OGD/R-induced H9c2 cells (CCK-8 cell viability); format: cell-based, rat; details: for H9c2 cell survival after OGD/R (in words): 1, 10, 25, 50 and 100 μM prior to OGD/R, vs model group; for EC50: protective effect against OGD/R injury, H9c2 cell viability
# Description: as §1
# When evaluating the cytotoxicities of the absorbed compounds, the H9c2 cells were seeded in 96-well plates at a density of 1 × 10^4 cells/well; when cells reached 80% confluence, they were treated with 25 and 50 μM of the 24 analytes to screen the non-toxic concentration ranges. Afterward, the protective effects were verified by assessing the cell viability when treating with different concentrations (1, 10, 25, 50, and 100 μM) of the analytes prior to OGD/R treatment.
# [4] = Pharmacokinetic study in rats after oral administration of QSG; details: for AUCi: exposure (AUC0→∞) of the component in rats after oral QSG, as used for ECI; for Oral relative bioavailability: exposure level (AUC0→∞) compared with the dosage of each compound in QSG; for Absorption efficiency / bioavailability (in words): from Table S12, rats
# Description: Ion source parameters were set as follows: temperatures of drying gas and sheath gas were 300 °C and 300 °C, flow rates of drying gas and sheath gas were 7 L/min and 11 L/min, the nebulizer was set at 35 psig, capillary voltage was 3500 V (−), and nozzle voltage was 2000 V (−). […] Chromatographic separations were conducted on a ZORBAX Eclipse Plus C18 column (3.0 × 50 mm, 1.8 μm, Agilent Technologies, California, USA). The mobile phase was composed of 0.1% aqueous FA (A, (v/v)) and 0.1% formic acid methanol (B), the flow rate was set at 0.5 mL/min, and the column oven was maintained at 40 °C.
# Protein precipitation was carried out for each time point for plasma samples, calibration samples, or QC samples by introducing four volumes of acetonitrile containing 400 ng/mL of icariin. Then, 10 μL 10% aqueous ascorbic acid (v/v) was spiked into each sample to prevent the oxidation of phenolic compounds. […] An aliquot (450 μL) of the supernatant was transferred and dried under nitrogen vacuum.
# The pharmacokinetic parameters were calculated by DAS software (version 2.0) for a non-compartmental analysis.
# [5] = rat plasma, single oral 7 g/kg QSG, n = 6
# [6] = Sprague Dawley, rat, plasma, oral, 7 g/kg
# [7] = Sprague Dawley, rat, plasma, po, 7 g/kg
Structure (SMILES),Concentration ([1]; 0.17 h),Concentration ([1]; 0.5 h),Concentration ([1]; 1 h),Concentration ([1]; 2 h),Concentration ([1]; 4 h),Concentration ([1]; 8 h),Concentration ([1]; 12 h),"Inhibition rate ([2]; 25 μM, H9c2 cells, n=3)","Inhibition rate ([2]; 50 μM, H9c2 cells, n=3)","Inhibition rate ([2]; 100 μM, H9c2 cells, n=3)",H9c2 cell survival after OGD/R (in words) [3],"AUC0→∞ ([4]; Table S12, rats, oral QSG)",AUCi [4],Oral relative bioavailability [4],Absorption efficiency / bioavailability (in words) ([4]; oral QSG),"AUC0→t [4, 5]","AUC0→∞ [4, 5]","Cmax [4, 5]","MRT [4, 5]","T1/2 [4, 5]",other results
CC(C)(O)[C@@H]1CC[C@](C)([C@H]2[C@@H](O)C[C@@]3(C)[C@@H]4C[C@H](O[C@@H]5O[C@H](CO)[C@@H](O)[C@H](O)[C@H]5O)[C@H]5C(C)(C)[C@@H](O[C@@H]6OC[C@@H](O)[C@H](O)[C@H]6O)CC[C@@]56C[C@@]46CC[C@]23C)O1 [Astragaloside IV],7.10 ± 5.941 ng/mL,8.655 ± 2.757 ng/mL,3.017 ± 3.507 ng/mL,3.783 ± 2.015 ng/mL,0.710 ± 1.991 ng/mL,1.337 ± 1.728 ng/mL,2.200 ± 2.015 ng/mL,-6.7 ± 7.1%,7.0 ± 2.1%,15.0 ± 2.3%,significantly improve H9c2 cell survival rates,144.9 ng·h/mL,144.9,0.107%,relatively higher absorption efficiency,55.94 ± 26.16 ng·h/mL,144.9 ± 101.2 ng·h/mL,12.06 ± 2.010 ng/mL,6.104 ± 3.716 h,14.87 ± 9.060 h,"Protective effects on OGD/R-induced H9c2 cells (in words) ([3]; at 50 and 100 μM): significant protective effects; Tmax [4, 5]: 0.250 ± 0.0920 h; Shape of the plasma concentration–time curve (in words) ([4]; rats, oral QSG): Double peaks"
O=C(/C=C/c1ccc(O)c(O)c1)O[C@@H]1C[C@](O)(C(=O)O)C[C@@H](O)[C@H]1O [Chlorogenic acid],–,–,–,–,–,–,–,–,–,–,significantly improve H9c2 cell survival rates,–,–,–,–,1278 ± 171.4 ng·h/mL,–,394.1 ± 6.271 ng/mL,–,–,"concentration at 0.08 h [1, 6]: 66.2 ± 20.1 ng/mL; concentration at 0.17 h [1, 6]: 99.06 ± 0.162 ng/mL; concentration at 0.5 h [1, 6]: 395 ± 7.1 ng/mL; concentration at 1 h [1, 6]: 170 ± 35.7 ng/mL; concentration at 2 h [1, 6]: 77.2 ± 7.26 ng/mL; concentration at 4 h [1, 6]: 68.1 ± 21 ng/mL; concentration at 8 h [1, 6]: 51.4 ± 5.49 ng/mL; concentration at 12 h [1, 6]: 39.1 ± 14.9 ng/mL; inhibition at 25 µM ([2]; Rattus norvegicus, 25 μM, H9c2 cells, n=3, read-out: Inhibition rate): -1.6 ± 4.9%; inhibition at 50 µM ([2]; Rattus norvegicus, 50 μM, H9c2 cells, n=3, read-out: Inhibition rate): 12 ± 1.7%; inhibition at 100 µM ([2]; Rattus norvegicus, 100 μM, H9c2 cells, n=3, read-out: Inhibition rate): 15 ± 4.1%; EC50 ([3]; Rattus norvegicus): 8.6 µM; AUC [4, 7]: 1420 ng·h/mL; MRT [4, 7]: 7.18 ± 0.978 h; Tmax [4, 7]: 0.563 ± 0.125 h; half-life [4, 7]: 9.22 ± 3.27 h; AUC(0-inf) ([4]; Sprague Dawley, rat, plasma, po, 7 g/kg, AUC0→∞, rat plasma, single oral 7 g/kg QSG, n = 6): 1420 ± 243 ng·h/mL"
O=C(/C=C/c1ccc(O)c(O)c1)O[C@H]1[C@H](O)C[C@](O)(C(=O)O)C[C@H]1O [Cryptochlorogenic acid],95.627 ± 23.461 ng/mL,135.955 ± 20.918 ng/mL,54.572 ± 22.599 ng/mL,29.505 ± 18.460 ng/mL,18.424 ± 6.281 ng/mL,21.857 ± 6.099 ng/mL,12.189 ± 3.932 ng/mL,-16.2 ± 4.2%,-3.4 ± 0.2%,5.2 ± 0.4%,significantly improve H9c2 cell survival rates,576.2 ng·h/mL,576.2,0.026%,relatively higher absorption rates,532.2 ± 41.45 ng·h/mL,576.2 ± 58.15 ng·h/mL,184.1 ± 57.43 ng/mL,8.933 ± 0.5290 h,10.84 ± 2.625 h,"Concentration ([1]; 0.08 h): 17.855 ± 11.504 ng/mL; Effect on H9c2 cell viability / cytotoxicity (in words) ([2]; CCK-8, compared to the control group): significantly enhanced cell viabilities; EC50 [3]: 1.13 µM; Tmax [4, 5]: 0.364 ± 0.076 h"

# Reference: publication PMC12567096, “An Efficacy- and In Vivo Exposure-Oriented Integrated Study to Investigate the Effective Components of Qishen Granule” (Pharmaceuticals, 2025)
